# “Also recorded” adds a separate entry of the source.
# Legend:
# Format in all cases: in vivo
# [1] = test system: IL-6; assay: Clinical study in COPD patients: change in blood IL-6 with inhaled ensifentrine compared with placebo; conditions: inhaled by nebuliser, 3 mg BID, 24 weeks, FIG. 1
# Method: (§1) A clinical study was conducted to determine the efficacy of ensifentrine in treating COPD compared with placebo. Ensifentrine was administered by nebuliser at a dose of 3 mg twice daily (BID) for 24 weeks. The study was a multi-centre, randomized, double-blind, parallel-group, placebo-controlled trial with around 800 patients and 5:3 randomization.
# (§2) The study population included patients aged 40-80 years with moderate to severe COPD (FEV1 30%-70% p.n., FEV1/forced vital capacity (FVC) ratio <0.7, with mMRC ≥2). The randomization stratified (a) the use of stable background maintenance LAMA or LABA therapy use (approx. 50%. yes or no) and (b) cigarette smoking (current or former). Inhaled corticosteroid (ICS) maintenance therapy was permitted in up to 20% of patients under certain provisions.
# (§3) The effect of ensifentrine on the change in blood IL-6 and IL-8 was measured.
# (§4) The investigational product and placebo were provided in 2.5 mL unit dose format in an ampule and administered via a nebuliser.
# [2] = test system: IL-8; assay: Clinical study in COPD patients: change in blood IL-8 with inhaled ensifentrine compared with placebo; conditions: inhaled by nebuliser, 3 mg BID, 24 weeks, FIG. 1
# Method: as §1, §2, §3, §4
# [3] = test system: bleomycin-induced lung fibrosis; assay: Rodent model of bleomycin-induced lung fibrosis (Example 2); conditions: rodents, inhalation; dose and period not given; histological fibrotic area
# Method: The anti-fibrotic activity of ensifentrine is assessed using a rodent model of bleomycin-induced lung fibrosis.
# Bleomycin is administered to anaesthetised rodents to induce lung fibrosis. Ensifentrine is then administered to the test rodents by inhalation for a period, and the rodents are subsequently killed. Lung samples are obtained for histological studies to determine fibrotic area.
# [4] = test system: inflammatory cell and macrophage infiltration into the rat airways; assay: Bleomycin-induced pulmonary fibrosis in rats: BAL differential cell counts
# Method: (§5) An in vivo study was conducted to determine the efficacy of ensifentrine in the treatment of bleomycin-induced pulmonary fibrosis in rats in comparison to a control. Rats were administered bleomycin to induce pulmonary fibrosis. After a week, they then received a daily inhaled dosage of ensifentrine or a control over a period of two weeks. At the end of the two weeks, the rats were sacrificed and their airways were analysed for Bronchoalveolar lavage (BAL) differential cell counts and TGF-β concentration.
# (§6) The BAL differential cell count provided a total inflammatory cell count so that changes in inflammation following treatment could be observed. TGF-β is a key cytokine in the development of tissue fibrosis. Macrophages and other immune cells produce TGF-β, which induces the differentiation of fibroblasts to myofibroblasts and increases TGF-β expression. Overexpression of active TGF-β1 in the lungs of rodents causes severe and progressive tissue fibrosis, including fibroblastic foci and honeycomb formation.
# (§7) At day 0, the rats were subjected to an intratracheal challenge of either 0.9% w/v saline or bleomycin, the latter used to induce pulmonary fibrosis.
# (§8) Starting on day 7, two groups of 12 rats from the bleomycin challenge group were administered an inhaled dose of ensifentrine at either 3 mg/kg (Experiment 1) or 10 mg/kg (Experiment 2) on a daily basis for two weeks, terminating on day 21. The ensifentrine was administered as a suspension in the vehicle suspension article.
# (§9) Two control experiments were also conducted. Control 1 subjected 12 rats from the saline challenge group to daily administration of the vehicle suspension article via inhalation for the full 21 days. Control 2 subjected 12 rats from the bleomycin challenge group to daily administration of the vehicle suspension article via inhalation for the full 21 days.
# (§10) At the end of the 21-day period, the rats were sacrificed and the BAL differential cell counts and the TGF-β concentration data were collected.
# [5] = test system: TGF-β; assay: Bleomycin-induced pulmonary fibrosis in rats: TGF-β concentration
# Method: as §5, §6, §7, §8, §9, §10
# An in vivo study was conducted to compare the efficacy of ensifentrine and nintedanib in the treatment of bleomycin-induced pulmonary fibrosis in rats. Following the same initial experimental procedure as in Example 3, 12 rats from the bleomycin challenge group were administered a daily dose of 100 mg/kg of nintedanib via an oral gavage for two weeks, starting from day 7 (Experiment 3). A new control experiment was also conducted (Control 3), administering the vehicle suspension article orally in an aqueous solution.
# At day 21, the rats were sacrificed and their airways were analysed to calculate the TGF-β concentration. The results were compared to those of Experiments 1 and 2 (Example 3).
# [6] = test system: bleomycin-induced pulmonary fibrosis; assay: Efficacy in treatment of bleomycin-induced pulmonary fibrosis in rats (overall); conditions: inhalation, 3 mg/kg and 10 mg/kg
# Method: as §5, §7, §8
# Two control experiments were also conducted. Control 1 subjected 12 rats from the saline challenge group to daily administration of the vehicle suspension article via inhalation for the full 21 days. Control 2 subjected 12 rats from the bleomycin challenge group to daily administration of the vehicle suspension article via inhalation for the full 21 days. […]
# [7] = Diarrhoea as side effect of inhaled ensifentrine in patients
# [8] = inhaled 3 mg/kg/day QD from day 7, day 21, vs bleomycin Control 2 (Experiment 1)
# [9] = inhaled 10 mg/kg/day QD from day 7, day 21, vs bleomycin Control 2 (Experiment 2)
smiles,measurement,setting,value
"COc1cc2c(cc1OC)-c1c/c(=N\c3c(C)cc(C)cc3C)n(CCNC(N)=O)c(=O)n1CC2 [ensifentrine, N-(2-{(2E)-9,10-dimethoxy-4-oxo-2-[(2,4,6-trimethylphenyl)imino]-6,7-dihydro-2H-pyrimido[6,1-a]isoquinolin-3(4H)-yl}ethyl)urea]",blood IL-6,[1],reduce blood IL-6; also recorded: reduction in blood IL-6
same,blood IL-8,[2],reduce blood IL-6 and IL-8; also recorded: reduction in blood IL-6 and IL-8
same,anti-fibrotic effect in bleomycin-induced lung fibrosis,[3],anti-fibrotic effect
same,BAL differential cell count,"[4]; inhaled 3 mg/kg QD from day 7, day 21 (Experiment 1)",reduction in BAL differential cell count
same,macrophage infiltration into the airways (BAL differential cell counts),[4]; [8],reduction in total inflammatory cell and macrophage infiltration
same,total inflammatory cell infiltration into the airways (BAL differential cell counts),[4]; [8],reduction in total inflammatory cell
same,BAL differential cell count,"[4]; inhaled 10 mg/kg QD from day 7, day 21 (Experiment 2)",reduction in BAL differential cell count
same,macrophage infiltration into the airways (BAL differential cell counts),[4]; [9],reduction in total inflammatory cell and macrophage infiltration
same,total inflammatory cell infiltration into the airways (BAL differential cell counts),[4]; [9],reduction in total inflammatory cell
same,TGF-β concentration in the rat lungs compared with nintedanib,"[5]; day 21, inhaled ensifentrine 3 mg/kg/day (Experiment 1) vs oral nintedanib 100 mg/kg/day (Experiment 3)",lower than the TGF-β concentration following treatment with nintedanib; also recorded: greater reduction in TGF-β concentration than orally administered nintedanib
same,TGF-β concentration in the rat lungs compared with nintedanib,"[5]; day 21, inhaled ensifentrine 10 mg/kg/day (Experiment 2) vs oral nintedanib 100 mg/kg/day (Experiment 3)",lower than the TGF-β concentration following treatment with nintedanib; also recorded: greater reduction in TGF-β concentration than orally administered nintedanib
same,TGF-β concentration,[5]; [8],lower; also recorded: reduction in BAL differential cell count and TGF-β concentration
same,TGF-β concentration,[5]; [9],lower; also recorded: reduction in BAL differential cell count and TGF-β concentration
same,efficacy in the treatment of bleomycin-induced pulmonary fibrosis,[6],effective
same,diarrhoea (side effect),[7],avoid side effects such as diarrhoea; also recorded: not to be associated with diarrhoea

# Source: US20260325521A1, “TREATMENT OF IDIOPATHIC PULMONARY FIBROSIS WITH ENSIFENTRINE” (Verona Pharma Limited, priority 2022, published 2026)
